Data from article PMC12311865, “In Vitro Evaluation of the Potential Interactions of Zearalenone-14-sulfate and Zearalenone-14-glucuronide with Human Cytochrome P450 Enzymes, Organic Anion Transporting Polypeptides, and ATP-Binding Cassette Multidrug Transporters” (ACS Omega, 2025).
Read-outs that look alike come from different tables or passages of the source.

Key:
human MRP2 = target: T1, human MRP2 (Homo sapiens, UniProt Q92887); experiment: biochemical; assay type: biochemical; conditions: CDCF 5 μM
T1 construct: made in house; host or cells: Sf9 insect cells (baculovirus)
Procedure: Experiments were performed in insect membrane vesicles, as described previously. Briefly, human MDR1, BCRP, and MRP2 were expressed in Sf9 insect cells by baculoviruses. On the third day of infection, cells were collected and membrane vesicles were obtained by mechanical disruption and differential centrifugation. To get full activity for BCRP, the cholesterol levels of the vesicles were adjusted to the level of mammalian membranes. Vesicles were stored at −80 °C, and the total protein content of the preparations was measured by the Lowry method (used as a reference for the quantity). […] A 100 μL volume of fluorescence stabilizer was added to the samples (DMSO for LY, 0.1 M H2SO4 for NMQ, and 0.1 M NaOH for CDCF). Fluorescence of samples was measured by plate readers (Victor X3 and Enspire PerkinElmer; Waltham, MA) at appropriate wavelengths (filters in the Victor X3 reader were 405/535 nm for LY and 492/635 nm for CDCF; while in the Enspire reader, NMQ was measured at 360/430 nm excitation/emission wavelengths). ABC-related transport was calculated by subtracting passive uptake measured without Mg-ATP from values measured in the presence of Mg-ATP.

OATP1B3 = target: T2, OATP1B3 (Homo sapiens, UniProt Q9NPD5); experiment: OATP1B3-mediated pyranine uptake in overexpressing A431 cells; assay type: cell-based
T2 construct: expressed in transfected cells; host or cells: A431
T2 sequence (Q9NPD5 1-702): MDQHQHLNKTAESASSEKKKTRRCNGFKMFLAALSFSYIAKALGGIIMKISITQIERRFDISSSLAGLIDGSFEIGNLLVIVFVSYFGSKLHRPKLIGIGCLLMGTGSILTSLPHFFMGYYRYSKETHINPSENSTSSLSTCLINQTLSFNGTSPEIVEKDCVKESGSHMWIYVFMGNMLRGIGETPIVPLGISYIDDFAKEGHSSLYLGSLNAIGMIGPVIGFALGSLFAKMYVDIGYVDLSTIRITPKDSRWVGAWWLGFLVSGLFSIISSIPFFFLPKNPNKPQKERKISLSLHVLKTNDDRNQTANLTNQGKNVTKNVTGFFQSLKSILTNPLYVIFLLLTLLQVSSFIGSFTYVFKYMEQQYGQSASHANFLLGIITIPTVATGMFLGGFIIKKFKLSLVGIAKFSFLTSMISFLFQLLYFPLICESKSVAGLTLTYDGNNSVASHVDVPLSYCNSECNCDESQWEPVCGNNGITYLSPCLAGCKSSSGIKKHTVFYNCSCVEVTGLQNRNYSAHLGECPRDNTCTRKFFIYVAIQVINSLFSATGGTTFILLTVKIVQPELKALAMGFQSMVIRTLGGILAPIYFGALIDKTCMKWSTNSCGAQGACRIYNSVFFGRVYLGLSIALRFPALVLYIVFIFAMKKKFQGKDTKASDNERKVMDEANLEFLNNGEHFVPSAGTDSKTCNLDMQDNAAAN
Procedure: The human epidermoid carcinoma cell (A431) overexpressing OATP1A2, OATP1B1, OATP1B3, or OATP2B1 transporters and their mock control cells were generated previously as described. , Cell culture was maintained in DMEM supplemented with 10% fetal bovine serum, 2 mM L-glutamine, 100 units/mL penicillin, and 100 μg/mL streptomycin at 37 °C and 5% CO2.
The inhibitory effects of mycotoxins (Z14S and Z14GA) were examined using indirect fluorescence assays, where pyranine and SR101 were used as fluorescent substrates. , A431 cells overexpressing OATP1A2, OATP1B1/3, or OATP2B1 and their mock-transfected controls were seeded at a density of 8 × 10^4 cells/well onto 96-well plates and incubated for 18–22 h prior to transport measurements. The next day, plated cells were washed three times with 200 μL of PBS (phosphate-buffered saline, pH 7.4) and preincubated with 50 μL of transport buffer (pH 5.5; 125 mM NaCl, 4.8 mM KCl, 1.2 mM CaCl2, 1.2 mM KH2PO4, 12 mM MgSO4, 25 mM MES, and 5.6 mM glucose) with or without increasing concentrations of the mycotoxins tested (0.001–20 μM) for 5 min at 37 °C. The transport inhibition measurements were initiated by adding 50 μL of transport buffer containing the proper fluorescent substrate SR101 (0.5 μM, OATP1A2) or pyranine (10 μM for OATP1B1 or 20 μM for OATP1B3 and OATP2B1). After 10 min (OATP1A2), 15 min (OATP1B1 and OATP2B1), or 30 min (OATP1B3) incubation, the transport was terminated by washing the cells three times with ice-cold PBS. […] Using an Enspire plate reader (PerkinElmer, Waltham, MA), the fluorescence was measured at excitation/emission wavelengths of 460/510 nm (pyranine) or 586/605 nm (SR101).
OATP-mediated transport was obtained by subtracting the activity of the mock control cells from the activity of the OATP-expressing cells. The transport activity (%) of the OATPs was calculated by comparing the fluorescence signal obtained in the absence of the compounds tested (set to 100%).

T1 sequence (Q92887 whole entry): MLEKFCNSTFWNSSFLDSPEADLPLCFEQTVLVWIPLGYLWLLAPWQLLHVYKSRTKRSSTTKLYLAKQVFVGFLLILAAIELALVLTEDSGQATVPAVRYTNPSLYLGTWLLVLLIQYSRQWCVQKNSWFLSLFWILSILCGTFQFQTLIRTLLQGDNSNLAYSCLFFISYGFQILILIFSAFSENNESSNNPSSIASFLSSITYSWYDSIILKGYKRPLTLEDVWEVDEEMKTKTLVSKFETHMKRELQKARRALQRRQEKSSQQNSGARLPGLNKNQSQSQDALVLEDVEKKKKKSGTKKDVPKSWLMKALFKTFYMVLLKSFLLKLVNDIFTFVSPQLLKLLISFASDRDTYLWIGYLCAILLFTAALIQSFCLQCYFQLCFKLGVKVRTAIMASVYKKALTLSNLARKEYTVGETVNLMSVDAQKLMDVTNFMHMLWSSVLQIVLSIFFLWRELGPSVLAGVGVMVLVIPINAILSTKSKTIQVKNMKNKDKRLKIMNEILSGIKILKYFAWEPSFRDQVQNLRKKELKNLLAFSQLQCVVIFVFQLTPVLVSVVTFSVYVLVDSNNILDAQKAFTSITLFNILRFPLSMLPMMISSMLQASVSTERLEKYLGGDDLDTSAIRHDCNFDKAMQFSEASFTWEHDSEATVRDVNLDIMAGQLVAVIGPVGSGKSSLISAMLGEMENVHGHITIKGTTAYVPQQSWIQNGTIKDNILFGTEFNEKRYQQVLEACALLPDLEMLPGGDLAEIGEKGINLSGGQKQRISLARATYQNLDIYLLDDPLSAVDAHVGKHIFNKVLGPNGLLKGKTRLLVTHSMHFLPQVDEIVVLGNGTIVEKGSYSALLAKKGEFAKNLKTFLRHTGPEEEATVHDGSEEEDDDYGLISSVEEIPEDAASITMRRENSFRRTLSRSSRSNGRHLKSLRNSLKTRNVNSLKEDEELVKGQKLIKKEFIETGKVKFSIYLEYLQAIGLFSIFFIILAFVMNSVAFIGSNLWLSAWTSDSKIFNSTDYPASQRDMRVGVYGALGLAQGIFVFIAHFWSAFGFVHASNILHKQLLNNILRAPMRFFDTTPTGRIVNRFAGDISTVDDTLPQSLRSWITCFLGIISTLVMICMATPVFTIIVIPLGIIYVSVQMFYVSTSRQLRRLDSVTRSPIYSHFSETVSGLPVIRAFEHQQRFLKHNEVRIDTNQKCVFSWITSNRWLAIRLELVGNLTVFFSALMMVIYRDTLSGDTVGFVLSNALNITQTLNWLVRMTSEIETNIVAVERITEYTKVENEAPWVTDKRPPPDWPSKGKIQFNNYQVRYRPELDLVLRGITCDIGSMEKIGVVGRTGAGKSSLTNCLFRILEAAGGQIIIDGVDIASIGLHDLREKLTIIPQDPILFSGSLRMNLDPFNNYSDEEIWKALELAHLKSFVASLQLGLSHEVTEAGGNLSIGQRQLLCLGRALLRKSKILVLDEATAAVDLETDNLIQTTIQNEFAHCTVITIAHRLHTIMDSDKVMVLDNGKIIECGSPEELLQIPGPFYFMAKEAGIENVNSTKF

Row | Structure (SMILES) | IC50 (human MRP2; Sf9 membrane vesicles, read-out: IC50 for MRP2-mediated CDCF transport) [µM] | IC50 (OATP1B3; pyranine 20 μM, 30 min, A431 cells, read-out: IC50 for OATP1B3) [µM] | effect on MRP2-dependent transport of CDCF (human MRP2; 0–50 μM) | IC50 (OATP1B3) [µM] | decrease in OATP1B3 transport activity (OATP1B3; 20 μM, pyranine substrate, A431 cells)
1 | C[C@H]1CCCC(=O)CCC/C=C/c2cc(O[C@@H]3O[C@H](C(=O)O)[C@@H](O)[C@H](O)[C@H]3O)cc(O)c2C(=O)O1 [Z14GA, Zearalenone-14-glucuronide] | > 10 | > 20 | – | – | –
2 | C[C@H]1CCCC(=O)CCC/C=C/c2cc(OS(=O)(=O)O)cc(O)c2C(=O)O1 [Z14S, zearalenone-14-sulfate] | – | – | weak inhibitory effect | 2.3 | 80–100%
